In assay [1] the test system is type B influenza virion-associated RNA polymerase. Put plainly: Inhibition of type B influenza virion-associated RNA polymerase. Conditions: 500 μM; GTP 135 μM. It counts as biochemical, influenza B Hongkong 8/73. The protocol: Polymerases, nucleic acid template nucleoside triphosphates, of which guanosine triphosphate is tritium-labelled, salt and buffer are mixed at 0° C. in a total volume of 125 μl (for herpes DNA polymerase, see F. below). The concentrations of the nucleoside triphosphates UTP (uridine triphosphate), CTP (cytidinetriphosphate), GTP (guanosinetriphosphate) and ATP (adenosinetriphosphate) were generall 400, 400, 400, and 2000 μM, respectively. The test compound is also added in various concentrations to the mixture obtained. A standard mixture without test compound is also prepared using the same amounts of the ingredients. The enzyme reaction, i.e. synthesis of nucleic acid, is started by incubating the mixture at 37° C. For influenza RNA polymerases the temperature is 33° C. The reaction is allowed to proceed for 60 minutes in the assay of influenza and Micrococcus polymerases. […] The incorporation of labelled monomer into trichloroacetic acid insoluble nucleic acid product was measured in the following way. […] After drying the discs are measured for radioactivity in a liquid scintillation counter. The difference in radioactivity between samples with and without added compound is used to calculate the inhibition of the polymerase activity. The inhibition is expressed as percentage inhibition using the radioactivity of the standard sample as basis. […]

Assay [2] has as its system HTLV-III. Put plainly: HTLV-III replication in H9 cells. Format: cell-based. As to conditions: Human immunodeficiency virus 1, 144 h. The protocol: H9 cells constitute a human cell line that can be chronically infected with HTLV-III virus. (Science 1984; 224: 497-500). H9 cells were treated with polybrene (2 μg/ml) for 30 min. at 37° C., washed free of polybrene and infected with 2×10^8 HTLV-III virus particles per 4×10^5 H9 cells. […] The cultures were analyzed for HTLV-III reverse transcriptase activity as described above.

Molecules are shown by their SMILES.

Regarding `O=C(O)P(=O)(O)O` [phosphonoformic acid], the Inhibition in assay [1] is 100%. Also, the inhibition at 300 µM in assay [2] (300 μM, after six days of incubation) was above 95%. Further, the IC50 in assay [2] (after 6 days of incubation, read-out: concentration giving 50% inhibition of HTLV-III replication) was 50 µM.

(Values after patent publication US4771041A, “Method for combating virus infection” (priority 1976, dated 1988).)
